One data set addresses T1, CK1-gamma3_h (Homo sapiens, UniProt Q9Y6M4).
T1 construct: purchased Life Technologies (Invitrogen) SelectScreen, Z'-LYTE / Adapta
The experiment in a line: SelectScreen kinase assay. The data set is classed as biochemical. The following applies: KM ATP, read-out: % control.

A further data set deals with T2, LRRK2 G2019S_h (Homo sapiens, UniProt Q5S007, G2019S).
T2 construct: purchased Life Technologies (Invitrogen) SelectScreen, Z'-LYTE / Adapta
The experiment in a line: SelectScreen kinase assay. The following applies: KM ATP, read-out: % control. Format: biochemical.

The next data set deals with T3, NEK7_h (Homo sapiens, UniProt Q8TDX7).
T3 construct: purchased Life Technologies (Invitrogen) SelectScreen, Z'-LYTE / Adapta
T3 sequence (Q8TDX7 whole entry): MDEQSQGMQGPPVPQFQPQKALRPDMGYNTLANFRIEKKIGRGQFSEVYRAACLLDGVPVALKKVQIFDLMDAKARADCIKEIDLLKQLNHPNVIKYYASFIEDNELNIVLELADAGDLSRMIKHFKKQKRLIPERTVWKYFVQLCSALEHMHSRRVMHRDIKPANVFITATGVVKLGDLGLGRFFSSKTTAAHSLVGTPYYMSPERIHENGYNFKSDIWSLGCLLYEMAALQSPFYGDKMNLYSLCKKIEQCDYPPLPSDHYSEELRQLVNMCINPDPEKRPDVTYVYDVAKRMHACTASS
Put plainly: SelectScreen kinase assay. The data set is classed as biochemical. The following applies: KM ATP, read-out: % control.

The next data set concerns the target T4, PhK-gamma1_h (Homo sapiens, UniProt Q16816).
T4 construct: purchased Life Technologies (Invitrogen) SelectScreen, Z'-LYTE / Adapta
Put plainly: SelectScreen kinase assay. The data set is classed as biochemical. The following applies: KM ATP, read-out: % control.

Data set [1] can be described thus: plasma compound exposure in rat CIA study. The data set is classed as in vivo. As to conditions: for AUC(0-t): female, Lewis, rat, plasma, po, read-out: AUC0-24h in plasma after the last day of dosing. The protocol:
Female Lewis rats (150 – 170g; Charles River Laboratories) were house standard shoebox cages, fed Harlan-Tekald diet and water ad libitum and maintained on a 12h light/dark cycle. For induction of arthritis rats were anesthetized with isofluorane and their entire dorsal area shaved. Rats were injected (intradermal) with 100 μl of equal volumes of collagen (Chrondrex, Redmond, WA) and IFA (Sigma Chemicals, St. Louis, MO) emulsion in 10 sites across the dorsal region. At disease onset 11 days following immunization animals were randomized into groups based on their ankle measurements and test article administration was initiated. Rats were dosed orally with vehicle (20% Captisol®), Indomethacin (Sigma Chemicals, St. Louis, MO, 2mg/kg) or CC-509 (15, 25mg/kg QD or 15mg/kg BID) in a dose volume of 5ml/kg. […] On the last day of the study animals were split into 2 cohorts and bleed twice via tail bleed under isofluorane anesthesia and a third terminal bleed following CO2 asphyxiation to obtain a time course of plasma compound exposure at 30minutes, 1, 2, 4, 8 and 24h after the last dose of CC-509.

Data set [2] can be described thus: preclinical toxicology studies, myelosuppression in male rats. Format: in vivo, rat.
The target of the next data set is Syk (Homo sapiens, UniProt P43405). Put plainly: Syk HTRF assay. Also noted: purchased Carna Biosciences 08-176. The data set is classed as biochemical. As to conditions: in-house, mean ± SD, n = 8. The protocol: CC-509 was prepared at a concentration of 1.5 mM in dimethyl sulfoxide (DMSO) followed by 3-fold dilutions in Greiner 384 well polypropylene plates. […] Time resolved fluorescence was read in assay plates on a PerkinElmer EnVision. […] The IC50 value was determined as described in the data fitting section below.
For the TEL-Syk assay, the intensity values for the 700 and 800 channel were exported as text files in ActivityBase (IDBS, Guildford, UK) to derive the ratios that reflect kinase activity. […] For the JAK2 HEL and Ramos NFAT β-lactamase assays, the fluorescence values obtained at 460 nm and 530 nm were exported into ActivityBase to calculate response ratios. […] Evans blue dye extravasation was expressed as mean ± SEM and % inhibition for the test article groups was normalized to the cromolyn positive control. […] The mean data from each group was plotted and either the AUC(day 11–18) or % inhibition on day 18 was calculated. Data is expressed as mean ± SEM of each group with n = 6–12. […]
(TR-FRET usually uses a lanthanide donor and a delayed reading to cut background.)

A further data set concerns the target T5, DNAPK_h (Homo sapiens, UniProt P78527).
T5 construct: purchased Life Technologies (Invitrogen) SelectScreen, Z'-LYTE / Adapta
The experiment in a line: SelectScreen kinase assay. Format: biochemical. The following applies: 3 µM, KM ATP. On the procedure:
Syk kinase mode of inhibition studies, including parameters described in Fig 1, were conducted on the LC3000 platform by Caliper Life Sciences (Hopkinton, MA) according to standard protocols developed by the supplier. […] Non-kinase enzyme assays and GPCR, ion channel, and transporter binding assays were run by CEREP (France). Non-GLP manual patch clamp hERG assays were run by ChanTest (Cleveland, Ohio). Vivid® Assay kits (Life Technologies) were used to measure the cytochrome P450 inhibition of the compound against CYP3A, CYP2C9, CYP2C19, CYP2D6, and CYP1A2, as described.
Kinase activity was measured using either the Z’-Lyte® or the Adapta® protocols as part of the SelectScreen™ profiling service offered at Life Technologies (Grand Island, NY). […] Values expressed as percent control (% control) relative to DMSO-only wells (uninhibited, 100%).

Data set [3] deals with rat passive cutaneous anaphylaxis model. As to conditions: 10 mg/kg dose; cited from earlier work.

Like-named read-outs stand apart in the source and are kept apart here.

T4 sequence (Q16816 whole entry): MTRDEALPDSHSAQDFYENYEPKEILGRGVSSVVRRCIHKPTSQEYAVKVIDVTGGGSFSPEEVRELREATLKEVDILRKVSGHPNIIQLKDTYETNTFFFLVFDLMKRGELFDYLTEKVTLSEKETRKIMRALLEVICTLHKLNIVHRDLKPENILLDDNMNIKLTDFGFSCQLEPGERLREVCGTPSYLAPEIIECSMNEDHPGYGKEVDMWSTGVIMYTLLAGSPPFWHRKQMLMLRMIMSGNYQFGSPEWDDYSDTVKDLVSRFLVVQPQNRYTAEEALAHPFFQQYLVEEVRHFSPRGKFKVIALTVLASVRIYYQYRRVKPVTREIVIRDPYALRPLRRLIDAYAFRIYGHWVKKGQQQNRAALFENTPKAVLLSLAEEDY
T2 sequence (Q5S007 whole entry G2019S): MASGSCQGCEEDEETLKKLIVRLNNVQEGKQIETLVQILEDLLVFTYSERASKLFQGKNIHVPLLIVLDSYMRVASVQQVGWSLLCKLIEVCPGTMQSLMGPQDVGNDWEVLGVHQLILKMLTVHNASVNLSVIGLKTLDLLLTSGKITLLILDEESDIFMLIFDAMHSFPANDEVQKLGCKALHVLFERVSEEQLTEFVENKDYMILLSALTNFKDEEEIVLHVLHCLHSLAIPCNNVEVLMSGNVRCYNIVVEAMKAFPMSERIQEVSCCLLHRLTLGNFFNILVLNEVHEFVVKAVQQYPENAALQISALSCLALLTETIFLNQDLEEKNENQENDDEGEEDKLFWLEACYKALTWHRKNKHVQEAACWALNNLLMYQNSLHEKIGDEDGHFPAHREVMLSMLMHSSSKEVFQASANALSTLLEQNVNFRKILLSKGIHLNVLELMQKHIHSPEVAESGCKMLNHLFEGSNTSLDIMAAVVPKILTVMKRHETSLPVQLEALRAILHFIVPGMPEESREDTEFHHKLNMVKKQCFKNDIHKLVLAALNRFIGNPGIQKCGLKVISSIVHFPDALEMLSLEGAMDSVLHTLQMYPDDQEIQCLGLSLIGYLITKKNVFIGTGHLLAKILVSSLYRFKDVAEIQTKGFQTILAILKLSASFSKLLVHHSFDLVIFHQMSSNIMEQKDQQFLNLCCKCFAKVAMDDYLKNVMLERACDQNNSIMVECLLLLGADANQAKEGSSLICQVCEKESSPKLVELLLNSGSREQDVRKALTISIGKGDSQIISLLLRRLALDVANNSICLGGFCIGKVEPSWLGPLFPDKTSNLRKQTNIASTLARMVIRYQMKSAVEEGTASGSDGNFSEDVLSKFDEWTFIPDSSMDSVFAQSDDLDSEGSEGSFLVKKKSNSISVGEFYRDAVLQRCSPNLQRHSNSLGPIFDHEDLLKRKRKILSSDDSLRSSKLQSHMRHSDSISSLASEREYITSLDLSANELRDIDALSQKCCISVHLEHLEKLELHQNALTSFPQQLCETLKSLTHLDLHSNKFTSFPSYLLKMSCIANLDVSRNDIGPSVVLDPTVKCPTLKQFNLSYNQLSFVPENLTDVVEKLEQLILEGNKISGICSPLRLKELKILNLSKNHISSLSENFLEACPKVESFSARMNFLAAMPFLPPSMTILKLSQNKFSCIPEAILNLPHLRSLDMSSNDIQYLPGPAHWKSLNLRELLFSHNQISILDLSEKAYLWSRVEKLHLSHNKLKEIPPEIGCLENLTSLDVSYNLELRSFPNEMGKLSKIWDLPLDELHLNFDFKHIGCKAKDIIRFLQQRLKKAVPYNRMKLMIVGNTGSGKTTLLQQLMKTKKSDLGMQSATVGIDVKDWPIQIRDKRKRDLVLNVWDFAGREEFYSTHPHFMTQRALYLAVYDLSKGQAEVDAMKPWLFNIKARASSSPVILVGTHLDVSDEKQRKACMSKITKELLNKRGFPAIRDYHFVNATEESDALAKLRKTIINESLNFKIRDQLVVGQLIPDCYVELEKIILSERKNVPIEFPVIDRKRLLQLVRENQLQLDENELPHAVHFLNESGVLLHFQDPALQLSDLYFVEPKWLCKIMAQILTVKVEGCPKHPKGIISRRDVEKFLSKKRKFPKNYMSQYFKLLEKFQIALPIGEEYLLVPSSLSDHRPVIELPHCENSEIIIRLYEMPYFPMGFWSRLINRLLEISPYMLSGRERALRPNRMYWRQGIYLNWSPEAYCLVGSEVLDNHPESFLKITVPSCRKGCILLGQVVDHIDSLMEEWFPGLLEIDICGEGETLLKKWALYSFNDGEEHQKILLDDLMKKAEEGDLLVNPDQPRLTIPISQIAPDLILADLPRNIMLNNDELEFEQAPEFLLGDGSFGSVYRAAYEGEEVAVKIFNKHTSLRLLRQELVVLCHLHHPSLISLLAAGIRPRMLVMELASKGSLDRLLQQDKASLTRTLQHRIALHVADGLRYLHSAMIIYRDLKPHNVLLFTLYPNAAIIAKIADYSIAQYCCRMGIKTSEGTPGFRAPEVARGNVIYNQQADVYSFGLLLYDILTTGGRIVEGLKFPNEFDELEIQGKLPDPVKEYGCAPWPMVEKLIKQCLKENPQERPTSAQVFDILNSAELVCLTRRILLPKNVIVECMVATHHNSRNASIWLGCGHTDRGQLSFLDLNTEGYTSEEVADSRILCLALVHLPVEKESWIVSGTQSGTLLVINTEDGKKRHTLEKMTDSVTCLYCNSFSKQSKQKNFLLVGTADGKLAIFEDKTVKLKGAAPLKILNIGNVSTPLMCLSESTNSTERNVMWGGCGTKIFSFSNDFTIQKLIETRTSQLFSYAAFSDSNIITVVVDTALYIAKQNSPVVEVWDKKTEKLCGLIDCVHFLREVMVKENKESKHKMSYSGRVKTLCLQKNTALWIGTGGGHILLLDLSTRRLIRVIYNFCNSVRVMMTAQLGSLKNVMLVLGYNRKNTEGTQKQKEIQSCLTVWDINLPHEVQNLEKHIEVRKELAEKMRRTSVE
T1 sequence (Q9Y6M4 whole entry): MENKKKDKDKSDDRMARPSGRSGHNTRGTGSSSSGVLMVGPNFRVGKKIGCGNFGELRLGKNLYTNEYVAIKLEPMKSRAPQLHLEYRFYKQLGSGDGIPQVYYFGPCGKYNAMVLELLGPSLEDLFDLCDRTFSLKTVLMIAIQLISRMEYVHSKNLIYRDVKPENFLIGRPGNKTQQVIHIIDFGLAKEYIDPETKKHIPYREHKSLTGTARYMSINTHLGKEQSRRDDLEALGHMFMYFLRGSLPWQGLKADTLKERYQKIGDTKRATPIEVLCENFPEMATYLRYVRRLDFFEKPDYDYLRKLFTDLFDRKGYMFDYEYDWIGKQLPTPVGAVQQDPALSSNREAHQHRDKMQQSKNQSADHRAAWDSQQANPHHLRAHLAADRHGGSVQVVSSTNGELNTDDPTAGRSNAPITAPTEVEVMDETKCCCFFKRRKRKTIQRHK

For `c1cc(CC2CCOCC2)n2nc(Nc3ccc4c(NC5CCOCC5)n[nH]c4c3)nc2c1` [CC-509, [3-(2H-3,4,5,6-tetrahydropyran-4-ylamino)(1H-indazol-6-yl)][5-(2H-3,4,5,6-tetrahydropyran-4-ylmethyl)(2H-1,2,4-triazolo[1,5-a]pyridin-2-yl)]amine], the remaining activity at 3 µM at CK1-gamma3_h was 50%; on LRRK2 G2019S_h, 4%; at NEK7_h, 102%; at PhK-gamma1_h, 75%. For the same compound, the AUC(0-t) in data set [1] (15 mg/kg, 15 mg/kg b.i.d.) worked out at 60 µM·h; in data set [1] (15 mg/kg, 15 mg/kg q.d.), 22 µM·h; in data set [1] (25 mg/kg, 25 mg/kg q.d.), 45 µM·h. Further, in [1] (rat CIA), the minimal efficacious exposure was 45 µM·h. Besides, the exposure producing myelosuppression in data set [2] was found to be 630 µM·h. The “fold higher exposure producing myelosuppression than R406” value in data set [2] is listed as “approximately 5 fold”. On Syk, this compound came in with an IC50 of 26 ± 6 nM.

As for `COc1cc(Nc2ncc(F)c(Nc3ccc4c(n3)NC(=O)C(C)(C)O4)n2)cc(OC)c1OC` [R406, reference compound], at DNAPK_h, the “% control” value is 87%. Moreover, the “effect in the PCA model” value in data set [3] is on record as “statistically significant effect”.

The IC50 is the concentration that inhibits the measured activity by half. Read a low IC50 as inhibition by little substance.
